The experiment concerns PC12 cells stably transfected with RAGE and transiently transfected with mutant presenilin-2 (N141 mutant). The experiment is described as follows: TUNEL apoptosis assay in transfected PC12 cells exposed to Aβ. Type of experiment: cell-based. The following applies: Aβ 0.3 and 1 μM, 24 hrs; cells co-transfected to express mutant presenilin-2 and RAGE. As for the experimental part:
Induction of apoptosis. For apoptosis studies, PC12 cultures, either mock-transfected (control), stably transfected with the RAGE-bearing construct or stably transfected with the RAGE-bearing construct and transiently transfected with the mutant presenilin-2 bearing construct, and were then exposed to Aβ (0.3 or 1 μM) for 24 hrs. At the end of this time, apoptosis was determined using the TUNEL assay by counting positively staining nuclei per twenty high-power fields. Under these conditions, mutant presenilin-2 by itself has little effect on apoptosis, as shown previously (FIG. 3).
Generation of Stable Transfected Cells. PC12 cells, grown as described and transfected with pcDNA3-RAGE (the latter comprised of the human RAGE cDNA) (Yan, et al., 1996) using lipofectamine (12 μg/ml) according to the manufacturer's instructions (Gibco-BRL). Cells were maintained in the presence of G418. Transient transfection was performed with a vector including mutant presenilin-2 (N141 mutant) (Wolozin et al., 1996), using lipofectamine, as described (Wolozin et al., 1996). Immunoblotting and immunostaining of PC12 cells for RAGE was performed as described previously (Yan, et al., 1996).
Apoptosis assay. The terminal deoxynucleotidyl transferase-mediated dUTP nick end labeling (TUNEL) assay was performed as described using a kit from Travigen, a peroxide-based TACS-TdTkit (Woolozin, et al., 1996). […]

On to “Aβ: Aβ (comprised of residues 1-42), synthesized, HPLC purified, purchased from a commercial supplier”, for which the “apoptosis (TUNEL, positively staining nuclei per twenty high-power fields)” value is “dramatic increase in apoptosis”.

For the origin of these results see patent publication US20030037344A1, “METHOD FOR EVALUATING THE ABILITY OF A COMPOUND TO INHIBIT NEUROTOXICITY” (priority 1997, published 2003).
